# System: NOMO1
# Assay: cell viability relative to DMSO control; higher = less cytotoxic
# Settings: 48 h
# In short: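 Viability is a per-plate percentage relative to DMSO wells, with cell-free wells as background. CellTiter-Glo One luminescence was read after 48 h at 37°C on 1536-well plates (5 μl) of NOMO1 or SEM (500 cells/well) or P12-Ichikawa (1000 cells/well) leukemia cells. The cells had been adapted for at least four passages in each medium and pin-dosed with library compounds in DMSO from 47 μM to 0.79 nM in 11 threefold steps.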
# [1] = HPLM + 10% dialyzed FBS, 0.000781 µM
# [2] = HPLM + 10% dialyzed FBS, 0.00234 µM
# [3] = HPLM + 10% dialyzed FBS, 0.00702 µM
# [4] = HPLM + 10% dialyzed FBS, 0.0211 µM
# [5] = HPLM + 10% dialyzed FBS, 0.0632 µM
# [6] = HPLM + 10% dialyzed FBS, 0.19 µM
# [7] = HPLM + 10% dialyzed FBS, 0.569 µM
# [8] = HPLM + 10% dialyzed FBS, 1.71 µM
# [9] = HPLM + 10% dialyzed FBS, 5.12 µM
# [10] = HPLM + 10% dialyzed FBS, 15.4 µM
# [11] = HPLM + 10% dialyzed FBS, 46.1 µM
# [12] = RPMI 5 mM glucose + 10% FBS, 0.000781 µM
# [13] = RPMI 5 mM glucose + 10% FBS, 0.00234 µM
# [14] = RPMI 5 mM glucose + 10% FBS, 0.00702 µM
# [15] = RPMI 5 mM glucose + 10% FBS, 0.0211 µM
# [16] = RPMI 5 mM glucose + 10% FBS, 0.0632 µM
# [17] = RPMI 5 mM glucose + 10% FBS, 0.19 µM
# [18] = RPMI 5 mM glucose + 10% FBS, 0.569 µM
# [19] = RPMI 5 mM glucose + 10% FBS, 1.71 µM
# [20] = RPMI 5 mM glucose + 10% FBS, 5.12 µM
# [21] = RPMI 5 mM glucose + 10% FBS, 15.4 µM
# [22] = RPMI 5 mM glucose + 10% FBS, 46.1 µM
# [23] = RPMI 5 mM glucose + 10% dialyzed FBS, 0.000781 µM
# [24] = RPMI 5 mM glucose + 10% dialyzed FBS, 0.00234 µM
# [25] = RPMI 5 mM glucose + 10% dialyzed FBS, 0.00702 µM
# [26] = RPMI 5 mM glucose + 10% dialyzed FBS, 0.0211 µM
# [27] = RPMI 5 mM glucose + 10% dialyzed FBS, 0.0632 µM
# [28] = RPMI 5 mM glucose + 10% dialyzed FBS, 0.19 µM
# [29] = RPMI 5 mM glucose + 10% dialyzed FBS, 0.569 µM
# [30] = RPMI 5 mM glucose + 10% dialyzed FBS, 1.71 µM
# [31] = RPMI 5 mM glucose + 10% dialyzed FBS, 5.12 µM
# [32] = RPMI 5 mM glucose + 10% dialyzed FBS, 15.4 µM
# [33] = RPMI 5 mM glucose + 10% dialyzed FBS, 46.1 µM
SMILES,cell viability [1],cell viability [2],cell viability [3],cell viability [4],cell viability [5],cell viability [6],cell viability [7],cell viability [8],cell viability [9],cell viability [10],cell viability [11],cell viability [12],cell viability [13],cell viability [14],cell viability [15],cell viability [16],cell viability [17],cell viability [18],cell viability [19],cell viability [20],cell viability [21],cell viability [22],cell viability [23],cell viability [24],cell viability [25],cell viability [26],cell viability [27],cell viability [28],cell viability [29],cell viability [30],cell viability [31],cell viability [32],cell viability [33]
CC(=O)N1CCN(c2ccc(OCc3nn(C)c(C)c3-c3cccc4c(CCCOc5cccc6ccccc56)c(C(=O)O)n(Cc5cccnc5)c34)cc2)CC1,107%,130%,119%,117%,138%,128%,126%,85.2%,32%,23.9%,22.7%,110%,125%,120%,124%,130%,129%,127%,67%,22.8%,19.6%,16%,118%,125%,130%,131%,136%,139%,129%,123%,24.9%,19.5%,21.2%
O=C(Nc1cccc(Nc2ncc(Br)c(NCCc3cnc[nH]3)n2)c1)N1CCCC1,–,–,–,–,–,–,–,–,–,–,–,113%,117%,122%,112%,112%,110%,68.7%,71.1%,62.8%,12.4%,1.13%,103%,106%,107%,107%,113%,95.2%,92.2%,59.6%,65.2%,37.1%,0.0873%
CC(=O)CC(C1=CC=CC=C1)C/2=C(O)/C3=CC=CC=C3OC2=O (stereo not given),96.8%,126%,111%,129%,124%,132%,132%,128%,147%,143%,155%,–,–,–,–,–,–,–,–,–,–,–,109%,116%,128%,123%,120%,126%,127%,121%,124%,127%,129%
CCOc1cc(N)c(Cl)cc1C(=O)NCC1CN(Cc2ccc(F)cc2)CCO1 (stereo not given),85.2%,120%,125%,118%,119%,120%,102%,120%,128%,111%,107%,102%,115%,106%,108%,114%,108%,106%,113%,122%,109%,104%,113%,115%,122%,118%,116%,111%,125%,112%,111%,107%,107%
[NH2][Pt]([NH2])([Cl])[Cl],94.8%,110%,91.2%,103%,121%,110%,93.8%,99.4%,95.5%,90.5%,94%,83.7%,92.2%,79.8%,99.6%,89.7%,103%,85.9%,88.1%,84.6%,82.4%,81.3%,90%,90.6%,88%,85.8%,97.4%,94.7%,96.8%,96%,94.9%,89.3%,101%
COc1cc(Nc2ncc(F)c(Nc3ccc4c(n3)NC(=O)C(C)(C)O4)n2)cc(OC)c1OC,93.8%,105%,119%,127%,139%,138%,120%,106%,53.3%,11.4%,6.39%,104%,111%,118%,118%,125%,126%,128%,106%,73.9%,13.4%,7.45%,109%,99.7%,107%,106%,105%,116%,128%,103%,82.7%,23.9%,6.81%
CCc1c(C(=O)C(N)=O)c2c(OCC(=O)O)cccc2n1Cc1ccccc1,113%,105%,94.9%,103%,122%,103%,107%,100%,89.4%,90.8%,96.5%,92%,105%,91.1%,103%,104%,93.1%,89.2%,103%,98.2%,100%,92.3%,95.3%,103%,105%,101%,105%,86.9%,103%,96.6%,96.3%,91.6%,92%
Cc1nccn1CC1CCc2c(c3ccccc3n2C)C1=O (stereo not given),–,–,–,–,–,–,–,–,–,–,–,115%,108%,114%,122%,105%,105%,111%,111%,108%,112%,105%,113%,116%,115%,121%,118%,112%,113%,111%,109%,106%,104%
C\C1=C\N([C@H]2C[C@H](N=[N+]=[N-])[C@@H](CO)O2)C(=O)NC1=O,94.1%,109%,99.4%,105%,111%,120%,109%,61%,29.7%,19.8%,25.7%,88.2%,109%,105%,106%,96.7%,97.5%,106%,29.3%,15.1%,14.3%,10.2%,107%,110%,109%,110%,105%,103%,113%,68.6%,20.8%,19.6%,18.9%
OC(=O)\C1=C\N(C2=CC=C(F)C=C2)C3=C(C=C(F)C(=C3)N4CCNCC4)C1=O,113%,99.1%,116%,111%,129%,122%,114%,105%,101%,95.6%,98.6%,103%,99.1%,110%,101%,104%,104%,117%,104%,115%,98.4%,94.6%,107%,106%,116%,105%,106%,113%,133%,100%,105%,104%,85.8%
c1cc(CN2CCCNCCNCCCNCC2)ccc1CN1CCCNCCNCCCNCC1,79.6%,109%,100%,30.5%,117%,108%,102%,109%,109%,106%,104%,88.4%,85.8%,97.8%,18.6%,89.2%,105%,86.7%,88.4%,85.4%,101%,92.5%,89.2%,78.2%,83.5%,33%,98.3%,93.9%,102%,92.7%,91.3%,91.4%,93.4%
CC(C)Nc1cc(C(F)(F)F)cc2nc(NC(=O)c3cccnc3)nn12,120%,116%,118%,126%,123%,101%,119%,85.2%,80.8%,71.6%,54.2%,106%,107%,115%,106%,98.1%,118%,116%,52.6%,45.9%,56.5%,64.8%,108%,109%,115%,119%,125%,103%,98.2%,55%,50.4%,56.9%,62.9%
NC(=O)c1ncn([C@@H]2O[C@H](CO)[C@@H](O)[C@H]2O)n1,116%,134%,110%,117%,112%,103%,88%,69.2%,55.4%,56.8%,29.6%,104%,129%,115%,108%,113%,110%,102%,85.4%,76.7%,74.5%,36.7%,124%,110%,116%,115%,114%,104%,89.4%,69.3%,58.2%,68.2%,48.9%
CN1CCC(CC1)COC2=CN=C(N=C2)C3=CC(=CC=C3)CN4/N=C(\C=C/C4=O)C5=CC(=CC=C5)C#N,105%,111%,103%,118%,119%,127%,111%,111%,123%,120%,101%,106%,110%,103%,107%,118%,119%,108%,123%,113%,116%,114%,88%,111%,103%,109%,109%,115%,102%,120%,118%,100%,114%
O=C(O)c1ccc(-n2nc(-c3ccccc3O)nc2-c2ccccc2O)cc1,90%,97.1%,111%,90.6%,108%,113%,95.4%,86.4%,91.2%,74.7%,44.4%,94.9%,92.5%,93.5%,94%,104%,96.3%,93.5%,103%,96%,90.5%,29.8%,94.3%,103%,96.4%,89.2%,87%,88.4%,89.5%,94.3%,79.5%,68%,24.2%
C1CCC(C(CC2CCCCN2)C2CCCCC2)CC1 (stereo not given),121%,111%,127%,111%,140%,127%,132%,150%,131%,118%,5.65%,108%,116%,133%,144%,116%,122%,132%,115%,131%,121%,6.9%,110%,108%,124%,107%,114%,130%,114%,131%,116%,98.1%,6.09%

# Reference: the supplement of paper PMC11451515
